Results published in article PMC6587462 (Journal of Clinical Pharmacology, 2018).

Key:
5‐HT3 receptor = biological target: T1, 5‐HT3 receptor (Homo sapiens, UniProt P46098); conditions: Helsinn, data on file
T1 sequence (P46098 24-478): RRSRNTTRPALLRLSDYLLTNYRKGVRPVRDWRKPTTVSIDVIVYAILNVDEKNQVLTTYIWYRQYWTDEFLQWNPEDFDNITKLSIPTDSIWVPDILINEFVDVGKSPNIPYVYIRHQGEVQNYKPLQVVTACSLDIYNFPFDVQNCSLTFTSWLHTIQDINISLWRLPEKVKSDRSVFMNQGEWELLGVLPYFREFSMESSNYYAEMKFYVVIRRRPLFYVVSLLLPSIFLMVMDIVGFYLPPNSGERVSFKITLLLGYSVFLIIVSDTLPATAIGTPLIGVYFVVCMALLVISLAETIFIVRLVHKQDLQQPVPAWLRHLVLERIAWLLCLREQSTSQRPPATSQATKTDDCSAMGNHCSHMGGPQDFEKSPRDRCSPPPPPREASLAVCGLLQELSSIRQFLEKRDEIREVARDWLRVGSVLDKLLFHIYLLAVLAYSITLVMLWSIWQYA

[1] = after both IV and oral administration; cited from earlier work
[2] = cited from earlier work
[3] = cited from earlier work; remark: listed apart in the source

Compound | 5-HT3 receptor antagonist activity relative to palonosetron (5‐HT3 receptor) [%] | fraction of administered palonosetron dose found in urine [1] | t1/2 [2] | adverse reactions on intravenous administration [3]
O=C1c2cccc3c2[C@H](CCC3)CN1[C@@H]1C[N+]2([O-])CCC1CC2 [M9, N‐oxide‐palonosetron] | < 1 | approximately 13% |  | 
C[C@@H](OC[C@@]1(c2ccccc2)CC[C@]2(CCC(=O)N2)CN1)c1cc(C(F)(F)F)cc(C(F)(F)F)c1 [rolapitant] |  |  | approximately 180 hours | injection‐site reactions
C[C@@H](O[C@H]1OCCN(Cc2nc(O)n(P(=O)(O)O)n2)[C@H]1c1ccc(F)cc1)c1cc(C(F)(F)F)cc(C(F)(F)F)c1 [fosaprepitant] |  |  |  | injection‐site reactions
O=C1c2cccc3c2[C@H](CC[C@@H]3O)CN1[C@@H]1CN2CCC1CC2 [6‐S‐hydroxy‐palonosetron] | < 1 |  |  | 
